Reference: BindingDB's records for patent US9572811 (Principia Biopharma, 2017)

Biological target: Tyrosine-protein kinase BTK (Homo sapiens, UniProt Q06187)
Assay: Caliper-based kinase assay
Conditions: 25 °C
Protocol: A Caliper-based kinase assay (Caliper Life Sciences, Hopkinton, Mass.) was used to measure inhibition of Btk kinase activity of a compound of Formula (I). […] The reaction was then terminated with EDTA, final concentration 20 mM and the phosphorylated reaction product was quantified on a Caliper Desktop Profiler (Caliper LabChip 3000).

Chain of Tyrosine-protein kinase BTK (Q06187 whole entry): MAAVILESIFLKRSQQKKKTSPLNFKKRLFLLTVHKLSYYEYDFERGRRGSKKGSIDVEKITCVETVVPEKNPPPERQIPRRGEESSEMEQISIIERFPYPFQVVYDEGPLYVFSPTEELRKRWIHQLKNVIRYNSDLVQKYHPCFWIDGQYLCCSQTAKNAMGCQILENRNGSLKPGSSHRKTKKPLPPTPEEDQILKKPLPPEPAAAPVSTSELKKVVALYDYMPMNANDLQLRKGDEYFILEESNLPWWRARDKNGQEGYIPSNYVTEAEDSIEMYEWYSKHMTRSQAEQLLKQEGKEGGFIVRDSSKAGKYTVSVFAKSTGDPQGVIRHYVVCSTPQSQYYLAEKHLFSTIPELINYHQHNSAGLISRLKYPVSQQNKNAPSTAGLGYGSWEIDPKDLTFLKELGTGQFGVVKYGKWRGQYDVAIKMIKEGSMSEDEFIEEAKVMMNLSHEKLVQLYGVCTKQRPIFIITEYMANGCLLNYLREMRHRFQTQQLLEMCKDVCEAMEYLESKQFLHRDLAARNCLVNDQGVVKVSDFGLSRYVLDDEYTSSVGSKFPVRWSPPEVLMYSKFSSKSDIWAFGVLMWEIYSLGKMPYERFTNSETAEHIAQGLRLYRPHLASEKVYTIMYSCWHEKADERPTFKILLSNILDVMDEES

IC50: 4.3 nM
Compound: CN(CCn1nc(-c2ccc(Oc3ccccc3)cc2)c2c(N)ncnc21)C(=O)C(C#N)=CC1CC1 [US9572811, Example 36A]
